# According to PubChem BioAssay (NCI):
# “And” between values parts separate entries of the source, which are not always exact repeats. Equal values may be shown once.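 Five concentrations, 48 hours, 96-well plates. GI50 marks 50% less growth. At the TGI there is no net growth.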
# Experiments:
# Assay in all cases: NCI tumour cell line growth inhibition, 48 h
# CAKI-1 renal = tested on: CAKI-1 renal
# NCI-H460 lung = tested on: NCI-H460 lung
# OVCAR-5 ovarian = tested on: OVCAR-5 ovarian
# RXF 393 renal = tested on: RXF 393 renal
# T-47D breast = tested on: T-47D breast
# SF-295 CNS = tested on: SF-295 CNS
# KM12 colon = tested on: KM12 colon
# A498 renal = tested on: A498 renal
# UACC-257 melanoma = tested on: UACC-257 melanoma
# K-562 leukemia = tested on: K-562 leukemia
Compound,GI50 (CAKI-1 renal),TGI (CAKI-1 renal),GI50 (NCI-H460 lung),TGI (NCI-H460 lung),GI50 (OVCAR-5 ovarian),TGI (OVCAR-5 ovarian),GI50 (RXF 393 renal),TGI (RXF 393 renal),GI50 (T-47D breast),TGI (T-47D breast),GI50 (SF-295 CNS),TGI (SF-295 CNS),GI50 (KM12 colon),TGI (KM12 colon),GI50 (A498 renal),TGI (A498 renal),GI50 (UACC-257 melanoma),TGI (UACC-257 melanoma),GI50 (K-562 leukemia),TGI (K-562 leukemia)
O=C(NNc1ccccc1)OCc1ccccc1,1.02 µM,14.2 µM,4.43 µM,> 100 µM,8.05 µM,> 100 µM,91.6 µM,> 100 µM,9.86 µM,> 100 µM,2.81 µM,28.2 µM,3.92 µM,> 100 µM,13.3 µM,> 100 µM,18.5 µM,> 100 µM,1.94 µM,> 100 µM
c1ccc(-c2nnc(Nc3ccc4c(c3)OCCO4)o2)c(NCc2ccncc2)c1,0.16 µM,> 100 µM,0.0313 µM,15.2 µM,0.0904 µM,79 µM,< 0.01 µM,0.0421 µM,1.65 µM,16.9 µM,0.0136 µM,> 100 µM,0.0327 µM,0.435 µM,0.0226 µM,0.533 µM,3.97 µM,> 62.4 µM,< 0.01 µM,4.43 µM
C/C(=N\NC(=O)c1ccccc1O)c1cccc(/C(C)=N/NC(=O)c2ccccc2O)n1,,> 100 µM,0.535 µM,74.1 µM and > 100 µM,10.8 µM and > 95.7 µM,49.5 µM and > 100 µM,5.38 µM,32.5 µM and 30.6 µM,2.3 µM,> 100 µM,0.33 µM,59.1 µM and > 36.1 µM,0.456 µM,> 100 µM,2.42 µM,> 100 µM and 16.7 µM,16.5 µM and > 100 µM,> 100 µM,,> 100 µM
CO[C@H]1C[C@@H]2CC[C@@H](C)[C@@](O)(O2)C(=O)C(=O)N2CCCC[C@H]2C(=O)O[C@H]([C@H](C)C[C@@H]2CC[C@@H](OP(C)(C)=O)[C@H](OC)C2)CC(=O)[C@H](C)/C=C(\C)[C@@H](O)[C@@H](OC)C(=O)[C@H](C)C[C@H](C)/C=C/C=C/C=C/1C,10.8 µM,25.9 µM,,21.8 µM,11.4 µM,27.6 µM,< 0.01 µM,16.4 µM,< 0.01 µM,23 µM,< 0.01 µM,15.5 µM,11.1 µM,25.3 µM,< 0.01 µM,15.5 µM,3.21 µM,21.8 µM,11.7 µM,> 69.4 µM
O=C(O)CCCSc1nc2ccccc2s1,,> 100 µM,,> 100 µM,,> 100 µM,,> 100 µM,,> 100 µM,,> 100 µM,,> 100 µM,,> 100 µM,,> 100 µM,,> 100 µM
N#Cc1cccc(/C=C(/C(=O)c2ccccc2)c2ccccc2)c1,3.92 µM,16.1 µM,3.85 µM,19.6 µM,11.9 µM,29.1 µM,3.72 µM,10.8 µM,3.78 µM,17.3 µM,4.23 µM,17.1 µM,3.31 µM,11.6 µM,4.08 µM,17.2 µM,4.05 µM,18.2 µM,3.52 µM,23.6 µM
CCOC(=O)Cn1c(C)c(/C=N/NC(=O)c2cc3c(ccc4ccccc43)o2)c2ccccc21,0.575 µM,2.37 µM,0.383 µM,1.79 µM,0.872 µM,10.7 µM,0.319 µM,1.08 µM,0.653 µM,> 27.8 µM,0.323 µM,1.65 µM,0.306 µM,1.52 µM,0.134 µM,1.04 µM,2.38 µM,> 30.4 µM,0.342 µM,> 100 µM
CCOC(=O)c1ccc(Nc2sc(C(=O)c3cccc([N+](=O)[O-])c3)c(N)c2C#N)cc1,0.044 µM,0.253 µM,0.0519 µM,4.14 µM,2.25 µM,29.6 µM,0.167 µM,24.8 µM,0.141 µM,> 68.5 µM,0.0228 µM,0.102 µM,0.0678 µM,6.43 µM,0.0827 µM,5.04 µM,0.301 µM,> 31.6 µM,0.0375 µM,6.53 µM
Nc1ccn(C2CC(O)C(CO)O2)c(=O)n1 (configuration not stated),> 5000 µM,> 5000 µM,> 5000 µM,> 5000 µM,> 5000 µM,> 5000 µM,> 5000 µM,> 5000 µM,> 5000 µM,> 5000 µM,> 5000 µM,> 5000 µM,> 5000 µM,> 5000 µM,> 5000 µM,> 5000 µM,> 5000 µM,> 5000 µM,> 5000 µM,> 5000 µM
C/C1=C\C/C=C(\C)[C@H]2CC(CC/C(C)=C/CC1)[C@@](C)(CO)O2,44.9 µM,> 100 µM,74.4 µM,> 100 µM,> 100 µM,> 100 µM,> 100 µM,> 100 µM,> 100 µM,> 100 µM,59.3 µM,> 100 µM,62.7 µM,> 100 µM,54.1 µM,> 100 µM,> 100 µM,> 100 µM,28.4 µM,> 100 µM
NC(CSc1nc2ccccn2c1[N+](=O)[O-])C(=O)O (configuration not stated),,> 100 µM,,> 100 µM,,> 100 µM,,> 100 µM,,> 100 µM,,> 100 µM,,> 100 µM,,> 100 µM,,> 100 µM,,> 100 µM
O=C(NC(=S)NNC(=S)NNc1ccccc1)c1ccccc1,4.75 µM,> 100 µM,3.72 µM,> 100 µM,> 100 µM,> 100 µM,29 µM,> 100 µM,3.24 µM,> 100 µM,4.19 µM,> 100 µM,7.09 µM,> 100 µM,37.5 µM,> 100 µM,4.68 µM,> 100 µM,1.13 µM,> 100 µM
C[C@H]1[C@H](C)CC[C@]2(C(=O)O)CC[C@]3(C)C(=CC[C@@H]4[C@@]5(C)CC[C@H](OC(=O)/C=C/c6ccc(O)cc6)C(C)(C)[C@@H]5CC[C@]43C)[C@H]12,3.13 µM,16.3 µM,7.08 µM,> 65.9 µM,5.27 µM,12.7 µM,1.83 µM,5.42 µM,13.3 µM,> 60.1 µM,2.27 µM,7.04 µM,1.09 µM,9.97 µM,21.1 µM,37.9 µM,12.1 µM,51.5 µM,7.14 µM,47.2 µM
